Consider three compounds from patent US12357556B2, “Composition for improving hair health” (K18, Inc., priority 2018, dated 2025).

Residues, ends and D or L forms follow the SMILES beside them.

The target of the experiment is T1, natural hair keratin (Hair Keratin KRTHB1 Basic, SEQ ID NO: 7) (Homo sapiens, UniProt Q14533).
T1 sequence (Q14533 304-505): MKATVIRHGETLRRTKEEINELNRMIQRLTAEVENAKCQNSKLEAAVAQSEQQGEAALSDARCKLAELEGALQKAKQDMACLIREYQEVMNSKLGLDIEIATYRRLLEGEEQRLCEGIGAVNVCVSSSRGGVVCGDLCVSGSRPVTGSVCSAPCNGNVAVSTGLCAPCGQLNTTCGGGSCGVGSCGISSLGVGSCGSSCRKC
Kind of experiment: SPRi binding affinity of peptides to keratin printed on a sensor chip. To be noted: for kon / koff: SPRi, 4° C., kinetic analysis with BIAevaluation 4.1; for kon: read-out: Ka (association rate constant); for koff: read-out: Kd (dissociation rate constant); for Affinity ranking: rank by KD, the lower the KD the more affinity to hair keratin. The procedure: Affinity of Aquis peptides with natural hair keratin were tested. A third peptide was also tested with the sequence GGVCGPSPPCITT (SEQ ID NO: 6) known as KP developed by Khairpep as a control. KP has been shown in previous patent and publications to penetrate the hair shaft, bind to keratin and improve hair mechanical properties. Various concentrations of Keratin dissolved in water were manually printed onto the bare gold coated (thickness 47 nm) PlexArray Nanocapture Sensor Chip (Plexera Bioscience, Seattle, WA, US) at 40% humidity. Each concentration was printed in replicate, and each spot contained 0.2 microliters of […] solution. The chip was incubated in 80% humidity at 4° C. for overnight, and rinsed with 10×PBST for 10 min, 1×PBST for 10 min, and deionized water twice for 10 min. The chip was then blocked with 5% (w/v) non-fat milk in water overnight, and washed with 10×PBST for 10 min, 1×PBST for 10 min, and deionized water twice for 10 min before being dried under a stream of nitrogen prior to use. SPRi measurements were performed with PlexAray HT (Plexera Bioscience, Seattle, WA, US). Collimated light (660 nm) passes through the coupling prism, reflects off the SPR-active gold surface, and is received by the CCD camera. Buffers and samples were injected by a non-pulsatile piston pump into the 30 uL flowcell that was mounted on the coupling prim. Each measurement cycle contained four steps: washing with PBST running buffer at a constant rate of 2 uL/s to obtain a stable baseline, sample injection at 5 uL/s for binding, surface washing with PBST at 2 uL/s for 300 s, and regeneration with 0.5% (v/v) H3PO4 at 2 uL/s for 300 s. All the measurements were performed at 4° C. The signal changes after binding and washing (in AU) are recorded as the assay value. Selected protein-grafted regions in the SPR images were analyzed, and the average reflectivity variations of the chosen areas were plotted as a function of time. Real-time binding signals were recorded and analyzed by Data Analysis Module (DAM, Plexera Bioscience, Seattle, WA, US). Kinetic analysis was performed using BIAevaluation 4.1 software (Biacore, Inc.).
FIG. 1 to 3 show the binding affinity to keratin for each peptide tested. The lower the KD value is, the more affinity the peptide has to hair keratin.

Consider `CC(C)C[C@H](NC(=O)[C@H](CCC(N)=O)NC(=O)[C@H](CS)NC(=O)[C@H](CS)NC(=O)[C@H](CO)NC(=O)[C@@H]1CCCN1C(=O)[C@@H]1CCCN1C(=O)[C@@H](NC(=O)[C@@H](N)CS)[C@@H](C)O)C(=O)N[C@@H](Cc1c[nH]cn1)C(=O)N[C@@H](Cc1c[nH]cn1)C(=O)N[C@@H](C)C(=O)O` [Aquis 2, CTPPSCCQLHHA] (H-CTPPSCCQLHHA-OH; N-terminus and C-terminus assumed), for which the kon came out at 8240 M⁻¹ s⁻¹, the koff was 0.0206 s⁻¹ and the Affinity ranking turned out to be 3.
In the case of `C[C@@H](O)[C@H](NC(=O)[C@H](CO)NC(=O)[C@H](CS)NC(=O)[C@H](CO)NC(=O)[C@@H]1CCCN1C(=O)[C@H](Cc1ccccc1)NC(=O)CNC(=O)[C@H](CS)NC(=O)[C@@H](N)Cc1ccccc1)C(=O)N[C@@H](CO)C(=O)NCC(=O)O` [Aquis 1, FCGFPSCSTSG] (H-FCGFPSCSTSG-OH; N-terminus and C-terminus assumed), the kon stood at 1310 M⁻¹ s⁻¹, the koff was found to be 0.000478 s⁻¹ and the Affinity ranking turned out to be 1. Further, the “affinity to hair keratin compared with the other peptides” value (comparison of Figures 1-3, in words) is recorded as “has the most affinity to hair keratin”.
Turning to `CC[C@H](C)[C@H](NC(=O)[C@H](CS)NC(=O)[C@@H]1CCCN1C(=O)[C@@H]1CCCN1C(=O)[C@H](CO)NC(=O)[C@@H]1CCCN1C(=O)CNC(=O)[C@H](CS)NC(=O)[C@@H](NC(=O)CNC(=O)CN)C(C)C)C(=O)N[C@H](C(=O)N[C@H](C(=O)O)[C@@H](C)O)[C@@H](C)O` [KP, GGVCGPSPPCITT, reference compound] (H-GGVCGPSPPCITT-OH; N-terminus and C-terminus assumed), the kon stood at 8500 M⁻¹ s⁻¹, the koff stood at 0.000692 s⁻¹ and the Affinity ranking was 2.
